Patent US5017723A, “Substituted ethylamines, their preparation process, their use as medicine and their synthesising agents” (Jouveinal S.A., priority 1990, dated 1991)
Where two headings read alike, the source gives them in different places.

Key:
[1] = system: bladder of the rat; assay: Transvesical cystomanometry on wide awake rat (urological activity); format: in vivo, female rat; settings: for change in vivo at 2.5 mg/kg / change in vivo at 5 mg/kg / change in vivo at 1 mg/kg: Rattus norvegicus, iv; for activity on the urinary tract compared to the reference compounds (in words): compared to Dicyclomine and Baclofen; for change in vivo at 5 mg/kg: 5,0 mg/kg i.v.; for change in vivo at 1 mg/kg: 1,0 mg/kg i.v.
Method: Studies by a similar method of operation, the compounds of the invention (I.A) which show a mu and kappa affinity also have an activity on certain functional parameters of the bladder of the rat which justifies their interest in the treatment of dysfunctions in the urinary tract.
The study carried out consists of transvesical cystomanometry on a wide awake rat. The following was measured during the storage and emission phases of urine under continuous intervesical perfusion of sterile physiological serum:
the "threshold pressure", which is the intervesical pressure immediately preceding the contraction phase of the detrusor
the volume of each urinary emission.
The technique used in the female rat consisted of preparing the animals 48 hours before the actual experiment by effecting the implantation of two catheters in the apex of the bladder and one catheter in the left-hand jugular vein under anaesthetic, with the external end of these catheters being protected and held by a sticking plaster corset.
The animals were placed in suitable cages at the time of the test, which were equipped so as to collect and measure the urine. For each animal one vesical catheter was connected to a pressure sensor, the other to a perfusor which supplied 0.2 ml/min. of sterile physiological serum continuously.
The intravesical pressure was measured continuously during the perfusion and it was possible to observe:
a filling phase of the bladder during which the pressure increased progressively,
a sudden rising phase of this pressure during the contraction of the detrusor: the "threshold" pressure which is the pressure observed just before the pressure of the contraction phase. This threshold pressure was raised in the same way as the urinary volume at each urination.
The study consisted of observing the changes in these parameters by the action of the products (IA) which were administered in solution by intravenous route by means of the catheter placed in the left jugular vein.
Dicyclomine and Baclofen which have been considered for the treatment of hyperactive bladders (Drugs of Today, Vol. 24, no. 5, 1988, p. 337-348) were also used in this test in the form of comparison products.

[2] = system: convulsion induced by picrotoxine in mice; assay: Protection against picrotoxine-induced convulsion (suppression of the tonic extension phase); format: in vivo, male Swiss mice; settings: for responders at 50 mg/kg / responders at 100 mg/kg / ED50: Mus musculus; for responders at 50 mg/kg: 0.5 h, read-out: i.p.: % prot. (percentage of protected animals), 50 mg/kg i.p., picrotoxine 24 mg/kg i.p. 30 min later; for responders at 100 mg/kg: 1 h, read-out: p.o.: % prot. (percentage of protected animals), 100 mg/kg p.o., picrotoxine 24 mg/kg i.p. 60 min later; for i.p.: % prot. (percentage of protected animals): 50 mg/kg i.p., picrotoxine 24 mg/kg i.p. 30 min later
Excerpt: The psychotropic properties of the compounds have been determined by the protection of the induced convulsion by picrotoxine for mice, which is achieved by the method derived from that of Krall et al., "Epilepsia", 1978, 19, p. 409-428.
The administration of picrotoxine caused a convulsive crisis in the animal characterised by a myoclonic extension syndrome followed by the extension of the limbs causing the animal to die. Certain substances, particularly those active on the complex GABA/benzodiazepines/Cl-ionophore makes it possible to protect the animals from this convulsive crisis.
In practice the study is carried out on batches of 10 male "Swiss" mice weighing approximately 20 g, which are administered with the product to be studied in aqueous solution either by intraperitoneal route (i.p.) at the rate of 50 mg/kg and in a volume of 0.2 ml of solution per animal, or by oral route (p.o) in a volume of 2.0 ml of solution per animal.
An injection of a solution of picrotoxine at the rate of 24 mg/kg in a volume of 0.2 ml per animal is then administered by interperitoneal route, either 30 minutes after administering the product by interperitoneal route or 60 minutes after administering the product by oral route. The dose of the product injected causing a clonic crisis, which results in untreated animals dying. The suppression of the extension tonic phase in the animals treated under the conditions of the test is observed. The results are expressed:
either in percentages of protected animals of this phase to the reaction of 50 mg/kg of the compound of the study administered by i.p. route or 100 mg/kg by p.o route,
or in DE50 for each of these routes, which is the efficient dosage of the test compound expressed in mg/kg protecting 50% of the animals of this extension phase. The significant value of the results being generally indicated in the following manner:
* Significant result at p<0.05
** Significant result at p<0.01
*** Significant highly significant at p<0.001.

[3] = target: opiated mu receptor (Cavia porcellus, UniProt A0ACM8Q262); format: binding, guinea pig
opiated mu receptor, sequence (A0ACM8Q262 1-400): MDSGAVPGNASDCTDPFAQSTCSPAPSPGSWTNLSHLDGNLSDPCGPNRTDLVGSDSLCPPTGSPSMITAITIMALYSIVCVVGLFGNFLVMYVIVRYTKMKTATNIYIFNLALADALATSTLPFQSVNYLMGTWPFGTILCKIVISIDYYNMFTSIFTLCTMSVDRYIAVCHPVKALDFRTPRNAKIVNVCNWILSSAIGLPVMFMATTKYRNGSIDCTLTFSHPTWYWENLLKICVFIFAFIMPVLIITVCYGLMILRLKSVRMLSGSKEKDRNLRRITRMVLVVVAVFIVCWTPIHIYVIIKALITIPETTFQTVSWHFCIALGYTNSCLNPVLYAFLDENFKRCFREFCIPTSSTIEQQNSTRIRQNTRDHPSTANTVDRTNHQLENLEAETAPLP
Method: (§1) The analysis is carried out in accordance with the technique described by F. Roman et al. in J. Pharm. Pharmcol. 1987, 39, p. 404-407 which consists of analysing the displacement of specific radioactive ligands of the opiated mu, delta and kappa sub receptors by the action of the test products on the membranous receptors of a guinea pig.

[4] = target: T1, opiated kappa receptor (Cavia porcellus, UniProt P41144); assay: Displacement of specific radioactive ligands, opiated kappa receptor; format: binding, guinea pig; settings: inhibition of 50% of radioligand bonds; read-out: CI50 affinity kappa rec.
T1 construct: membranous receptors of a guinea pig; from tissue
T1 sequence (P41144 whole entry): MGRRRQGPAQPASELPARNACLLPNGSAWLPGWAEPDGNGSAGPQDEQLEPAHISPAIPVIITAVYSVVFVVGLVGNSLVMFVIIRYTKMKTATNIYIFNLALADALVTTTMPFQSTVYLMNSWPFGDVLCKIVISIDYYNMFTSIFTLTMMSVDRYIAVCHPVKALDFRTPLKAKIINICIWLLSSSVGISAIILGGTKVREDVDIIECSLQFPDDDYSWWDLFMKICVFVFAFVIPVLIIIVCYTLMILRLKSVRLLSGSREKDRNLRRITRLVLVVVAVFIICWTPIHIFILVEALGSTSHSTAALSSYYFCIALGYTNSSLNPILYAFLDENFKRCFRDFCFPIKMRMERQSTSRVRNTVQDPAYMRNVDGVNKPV
Method: as §1

[5] = target: T2, opiated delta receptor (Cavia porcellus, UniProt A0A286XTF2); assay: Displacement of specific radioactive ligands, opiated delta receptor; format: binding, guinea pig; settings: inhibition of 50% of radioligand bonds; read-out: CI50 affinity delta rec.
T2 construct: membranous receptors of a guinea pig; from tissue
T2 sequence (A0A286XTF2 1-366): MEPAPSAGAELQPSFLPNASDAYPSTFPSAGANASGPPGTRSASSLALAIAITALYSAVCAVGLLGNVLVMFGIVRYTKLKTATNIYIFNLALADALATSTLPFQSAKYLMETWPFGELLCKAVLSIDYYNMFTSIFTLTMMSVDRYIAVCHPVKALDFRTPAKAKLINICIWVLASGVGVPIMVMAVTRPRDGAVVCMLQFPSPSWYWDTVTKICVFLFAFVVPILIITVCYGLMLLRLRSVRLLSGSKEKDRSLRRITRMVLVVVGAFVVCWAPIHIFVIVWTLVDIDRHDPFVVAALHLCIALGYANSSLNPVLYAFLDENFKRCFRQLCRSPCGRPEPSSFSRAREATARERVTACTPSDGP
Method: as §1

[6] = read-out: % variation pressure threshold
[7] = ip, * p<0.05, ** p<0.01, *** p<0.001
[8] = po, * p<0.05, ** p<0.01, *** p<0.001
[9] = inhibition of 50% of radioligand bonds; read-out: CI50 affinity mu rec.
[10] = * p<0.05, ** p<0.01, *** p<0.001

| Structure (SMILES) | responders at 50 mg/kg [2, 7] | responders at 100 mg/kg [2, 8] | IC50 [3, 9] | IC50 [4] | IC50 [5] | further results |
| --- | --- | --- | --- | --- | --- | --- |
| CCN(CC)CCOC(=O)C1(C2CCCCC2)CCCCC1 [Dicyclomine, reference compound] | – | – | – | – | – | change in vivo at 2.5 mg/kg ([1]; 2,5 mg/kg i.v., read-out: % variation pressure threshold): 28%; change in vivo at 2.5 mg/kg ([1]; 2,5 mg/kg i.v., read-out: % variation volume): 20% |
| NCC(CC(=O)O)c1ccc(Cl)cc1 (stereo not drawn) [Baclofen, reference compound] | – | – | – | – | – | change in vivo at 2.5 mg/kg [1, 6]: 113%; change in vivo at 2.5 mg/kg ([1]; read-out: % variation volume): 32%; activity on the urinary tract compared to the reference compounds (in words) [1]: most active comparative product in these tests |
| CCC(CC=Cc1ccccc1)(c1ccc(Cl)cc1)N(C)C (single isomer, unassigned; (+)) [Example 52, (+) a-cinnamyl-N,N-dimethyl-a-ethyl-p.chlorobenzylamine] | 70% | 90% | 7 nM | 99 nM | – | activity on the urinary tract compared to the reference compounds (in words) [1]: important activity |
| CCC(CC=Cc1ccc(Cl)c(Cl)c1)(NC)c1ccc(OC)cc1 (stereo not drawn) [Example 25, a-(3',4'-dichloro)cinnamyl-a-ethyl-N-methyl-p.methoxybenzylamine] | – | 50% | 56 nM | 875 nM | 1590 nM | change in vivo at 5 mg/kg [1, 6]: 85%; change in vivo at 5 mg/kg ([1]; read-out: % variation volume): 67% |
| CCC(N)(CC=Cc1ccccc1)c1ccc(Cl)cc1 (single isomer, unassigned; (-)) [Example 17B, (-)a-cinnamyl-a-ethyl-p.chlorobenzylamine] | – | – | 11.4 nM | – | – | i.p.: % prot. (percentage of protected animals) [2, 10]: 80%; p.o.: % prot. (percentage of protected animals) ([2]; 100 mg/kg p.o., picrotoxine 24 mg/kg i.p. 60 min later, * p<0.05, ** p<0.01, *** p<0.001): 50% |
| CCC(CC=Cc1ccccc1)(c1ccc(OC)cc1)N(C)C (stereo not drawn) [Example 35, a-cinnamyl-N,N-dimethyl-a-ethyl-p.methoxybenzylamine] | 90% | – | 60 nM | 290 nM | 1280 nM | ED50 ([2]; po, read-out: p.o.: DE50): 40.3 mg/kg; change in vivo at 1 mg/kg [1, 6]: 200%; change in vivo at 1 mg/kg ([1]; read-out: % variation volume): 39%; activity on the urinary tract compared to the reference compounds (in words) [1]: important activity |
| CCC(CC=Cc1ccc(Cl)c(Cl)c1)(NC)c1ccc(C)cc1 (stereo not drawn) [Example 24, a-(3',4'-dichloro)cinnamyl-a-ethyl-N-methyl-p.methylbenzylamin] | – | – | 21 nM | 410 nM | 1400 nM | p.o.: DE50 ([2]; p.o. route, value printed with a % sign): 73,5% |
| CCC(CC=Cc1ccc(Cl)c(Cl)c1)(NC)c1ccc(Cl)cc1 (stereo not drawn) [Example 26, a-(3' ,4'-dichloro)cinnamyl-a-ethyl-N-methyl-p.chlorobenzylamine] | – | – | 28 nM | 458 nM | 1070 nM | change in vivo at 5 mg/kg [1, 6]: 229%; change in vivo at 5 mg/kg ([1]; read-out: % variation volume): 93% |
| CCC(CC=Cc1ccccc1)(c1ccc(C)cc1)N(C)C (stereo not drawn) [Example 33] | – | – | – | 120 nM | 1230 nM | activity on the urinary tract compared to the reference compounds (in words) [1]: important activity; IC50 ([3]; read-out: CI50 affinity mu rec.; inhibition of 50% of radioligand bonds): 50 nM |
| CNC(CC=Cc1ccc(Cl)c(Cl)c1)(c1ccccc1)C(C)C (stereo not drawn) [Example 23, a-(3',4'-dichloro)cinnamyl-a-isopropyl-N-methyl-benzylamine] | 60% | 100% | 80 nM | 340 nM | 1380 nM | change in vivo at 5 mg/kg [1, 6]: 196%; change in vivo at 5 mg/kg ([1]; read-out: % variation volume): 35% |
| CCC(CC=Cc1cc(OC)c(OC)c(OC)c1)(c1ccccc1)N(C)C (stereo not drawn) [Example 37] | – | – | 100 nM | 230 nM | 150 nM | change in vivo at 5 mg/kg [1, 6]: 188%; change in vivo at 5 mg/kg ([1]; read-out: % variation volume): 53% |
| CCCN(C)C(CC)(CC=Cc1ccccc1)c1ccccc1 (stereo not drawn) [Example 47, a-cinnamyl-a-ethyl-N-methyl-N-propylbenzylamine] | – | – | – | – | – | ED50 ([2]; ip, read-out: i.p.: DE50): 58.2 mg/kg; ED50 ([2]; po, read-out: p.o.: DE50): 65 mg/kg |
| CCC(N)(CC=Cc1ccccc1)c1ccc(OC)cc1 (stereo not drawn) [Example 8, a-cinnamyl-a-ethyl-p.metoxybenzylamine] | 80% | – | – | – | – | – |
| CCC(C[C@@H]1C[C@H]1c1ccccc1)(c1cccs1)N(C)C (relative stereo) [Example 63, trans N,N-dimethyl-a-ethyl-a-(2-phenyl-1-cyclopropylmethyl)-2-thienylmethylmaine] | 60% | 50% | – | – | – | – |
| CCC(CC=Cc1ccccc1)(NC)c1ccc(Cl)cc1 (stereo not drawn) [Example 19, a-cinnamyl-a-ethyl-N-methyl-p.chlorobenzylamine] | 70% | – | 200 nM | 264 nM | 3490 nM | change in vivo at 5 mg/kg [1, 6]: 354%; change in vivo at 5 mg/kg ([1]; read-out: % variation volume): 54% |
| CCC(CC=Cc1ccccc1)(NC)c1ccccc1 (single isomer, unassigned; (+)) [Example 29, (+) a-cinnamyl-a-ethyl-N-methyl benzylamine] | – | – | – | – | – | i.p.: % prot. (percentage of protected animals) [2, 10]: 100% |
| CCC(CC=Cc1ccccc1)(c1ccc(Cl)cc1)N(C)C (stereo not drawn) [Example 31, a-cinnamyl-N,N-dimethyl-a-ethyl-p.chlorobenzylamine] | 100% | 50% | 80 nM | 210 nM | 1340 nM | activity on the urinary tract compared to the reference compounds (in words) [1]: important activity |
| CCC(CC=Cc1ccccc1)(c1ccccc1)N(C)C (single isomer, unassigned; (-)) [Example 49, (-)a-cinnamyl-N,N-dimethyl-a-ethylbenzylamine] | 100% | 100% | – | – | – | – |
| CCC(CC=Cc1ccsc1)(c1ccsc1)N(C)C (stereo not drawn) [Example 70, N.N-dimethyl-a-ethyl-a-[3-(3-thienyl)-2-propenyl]-3-thienylmethylamine] | 80% | 100% | – | – | – | – |
| CCC(CC=Cc1ccccc1)(c1ccc(Cl)c(Cl)c1)N(C)C (stereo not drawn) [Example 32, a-cinnamyl-N,N-dimethyl-a-ethyl-(3,4-dichloro)benzylamine] | 50% | 60% | – | – | – | – |
| CCC(CC=Cc1ccco1)(c1cccs1)N(C)C (stereo not drawn) [Example 64, N,N-dimethyl-a-ethyl-a-[3-(2-furyl)-2-propenyl]-2-thienylmethylamine] | 70% | 50% | – | – | – | – |
